Measured values: ChEMBL document CHEMBL1141258, “Prismatomerin, a new iridoid from Prismatomeris tetrandra. Structure elucidation, determination of absolute configuration, and cytotoxicity” (J Nat Prod, 2007)
Values after ≈ are worked out from the molar mass of the structure shown.

Assays:
[1] = system: A549; assay: Antiproliferative activity against human A549 cells after 5 days by MTT assay; conditions: A549, 120 h
[2] = system: SW480; assay: Antiproliferative activity against human SW480 cells after 5 days by MTT assay; conditions: SW480, 120 h
[3] = system: L929; assay: Antiproliferative activity against mouse L929 cells after 5 days by SRB assay; format: cell-based; conditions: L929, 120 h
[4] = Antiproliferative activity against human KB31 cells after 5 days by MTT assay; conditions: KB 3-1, 120 h
[5] = Toxicity in brine shrimp after 24 hrs; format: organism-based; conditions: artemia, in vivo; read-out: LD50
[6] = Toxicity in brine shrimp after 48 hrs; format: organism-based; conditions: artemia, in vivo; read-out: LD50

Row | Compound | IC50 [1] [nM] | IC50 [2] [nM] | IC50 [3] [nM] | IC50 [4] [nM] | LC50 at 24 h [5] [µg/mL] | LC50 at 48 h [6] [nM]
1 | COC(=O)C1=CO[C@@H]2O[C@H]3/C(=C\c4ccc(OC(C)=O)cc4)C(=O)O[C@]34C=C[C@H]1[C@H]24 | 1600 | 84 | 410 | 350 | – | –
2 | COC(=O)C1=CO[C@H](O[C@@H]2O[C@H](CO)[C@@H](O)[C@H](O)[C@H]2O)[C@H]2[C@@H]1C=C[C@@]21C=C(C(O)c2ccc(O)cc2)C(=O)O1 (stereo partly specified) [GAERTNEROSIDE] | – | – | – | – | 0.38 (≈ 0.693 µM) | 224
